Data published in patent US20230203005A1, “COMPOUNDS WITH TUBULIN POLYMERISATION INHIBITORY ACTIVITY AND IMMUNOMODULATORY PROPERTIES” (UNIVERSITE PARIS-SACLAY, priority 2018, published 2023).

What was measured:
[1] = system: tubulin; test: Tubulin polymerisation inhibition (fluorescence assembly assay); assay type: biochemical, ewe; details: inhibition of 50% of the maximum assembly rate; tubulin 10 μM
Procedure: The tubulin is purified from ewe brains according to the Shelanski method by 2 assembly-disassembly cycles. The mother solution (15-20 mg/mL), stored at −196° C., is thawed and diluted in the assembly buffer (0.1 M MES, 0.5 mM MgCl2, 1 mM EGTA, and 1 mM GTP, pH 6.6) to have a final concentration of 10 μM. Tubulin assembly is monitored by fluorescence on 96 well plates according to the method of Barron et al. (Anal. Biochem. 315 (2003) 49-56). To the solution of tubulin (10 μM, 100 μL per well) is added the inhibitor (DMSO, 1 μL) and the solution is incubated for 45 min at room temperature. GTP (1 mM final) is next added, the solution is rapidly mixed and the fluorescence (λex=350 nm, λem=440 nm) is measured on a Wallac Victor fluorimeter (Perkin Elmer). The determination of the inhibition of 50% of the maximum assembly rate (IC50) is carried out in duplicate or triplicate over 10 concentrations surrounding the IC50.

[2] = system: HCT116 colorectal carcinoma; test: In vitro cytotoxicity (CellTiter-Blue), HCT116; assay type: cell-based; details: Homo sapiens, HCT-116; 72 hours of incubation
Procedure: (§1) The biological activity of the compounds of the invention were studied in vitro on […] human cancer cell lines of different tissular origins: HCT116 colorectal carcinoma; A2780R Cisplatin resistant ovary cancer; MiaPaca2 pancreatic cancer; K562R Doxorubicin resistant chronic myeloid leukaemia; JIM-T1 Trastuzumab-DM1 resistant mammal carcinoma; and HepG2 hepatic carcinoma. The cells selected for this study were incubated at 37° C. in the presence of one of the compounds added to the culture medium at different concentrations. The series of experiments carried out made it possible to determine the degree of toxicity of the compound tested, its effect on cell cycle progression as well as its capacity to induce cell death by apoptosis.
All the cell lines were maintained in culture at 37° C. in a humid atmosphere containing 5% CO2. Cell viability was evaluated using the reagent CellTiter-Blue™ (Promega, Wis., USA) while respecting the manufacturer's instructions. The cells were seeded in 96 well culture plates at a rate of 5000 cells per […] in 50 μl of culture medium. After 24 hours of culture, the compounds of generic formula (I) dissolved in DMSO were added individually to each of the wells at a rate of 50 μl per well. All the compounds were tested in triplicate for each concentration defined and each experiment was repeated 3 times. After 72 hours of incubation, 20 μL of resazurin were added to each well. After 2 hours of incubation, the fluorescence emitted was measured at 590 nm after excitation at 560 nm by means of a Victor type fluorescence reader (Perkin-Elmer, USA).

[3] = prior art WO 2008/122620; cited from earlier work
[4] = system: MiaPaca2 pancreatic cancer; test: In vitro cytotoxicity (CellTiter-Blue), MiaPaca2; assay type: cell-based; details: Homo sapiens, MIA PaCa-2; 72 hours of incubation
Procedure: as §1
(§2) All the cell lines were maintained in culture at 37° C. in a humid atmosphere containing 5% CO2. Cell viability was evaluated using the reagent CellTiter-Blue™ (Promega, Wis., USA) while respecting the manufacturer's instructions. The cells were seeded in 96 well culture plates at a rate of 5000 cells per […] in 50 μl of culture medium. […] After 2 hours of incubation, the fluorescence emitted was measured at 590 nm after excitation at 560 nm by means of a Victor type fluorescence reader (Perkin-Elmer, USA).

[5] = system: A2780R Cisplatin resistant ovary cancer; test: In vitro cytotoxicity (CellTiter-Blue), A2780R; assay type: cell-based; details: Homo sapiens; 72 hours of incubation
Procedure: as §1, §2

[6] = system: HUVECs; test: Formation of vascular tubes on Matrigel; assay type: cell-based, human; details: 5 hours, 10 nM (non-toxic)
Procedure: To determine whether compound 1 disrupts the spatial organisation of endothelial cells into structures similar to vascular capillaries, human endothelial cells (HUVECs) were treated immediately after culturing on Matrigel™ or after 24 hours of culture, in order to allow them to form vascular tubes.
The HUVECs (human endothelial cells derived from the umbilical cord) were cultivated in EGM2 culture medium (Promocell, Germany). The cells were maintained in culture at 37° C. in a humid atmosphere containing 5% CO2.
To evaluate the anti-vascular activity of compound 1, the HUVECs were cultured in 96 well culture plates covered beforehand with an extract of extracellular matrix (Matrigel™, BD Biosciences, Le Pont-de-Claix, France) in which they spontaneously form capillary tubes.
Firstly, we measured the capacity of compound 1 to inhibit the formation of the capillary network. Matrigel™ is deposited in the 96 well culture plates at a rate of 70 μL/well and left to incubate at 37° C. for 45 minutes to enable its polymerisation. 20,000 HUVECs are seeded in each of the wells containing Matrigel™ in the absence or in the presence of different concentrations of compound 1, at a rate of 3 wells per concentration. After 2 hours, 3 hours and 5 hours of incubation at 37° C., the cells are observed and photographed using a TE2000 type optical microscope (Nikon, France), equipped with a camera. […]

[7] = system: HCT116 cells; test: Analysis of the cell cycle by flow cytometry; assay type: cell-based, human; details: HCT116, 24 hours of exposure, 5 nM
Procedure: The HCT116 cells are seeded in 6 well culture plates at a rate of 300,000 cells per well in their respective media described above. After 24 hours of culture, compound 1 was added to each of the wells at different concentrations. After 24 hours of incubation, the cells are collected individually in 15 mL tubes then centrifuged. The cells are next washed twice in cold PBS then re-suspended in 1 mL of PBS, fixed by adding 2 mL of cold absolute ethanol and placed at 4° C. for 1 hour. After centrifugation, the cells are washed twice in PBS then the cell pellet is taken up in 100 μL of 1%. Triton X100. After 30 minutes of incubation at room temperature, 50 μL of RNase A boiled beforehand (1 mg/mL) and 500 μL of propidium iodide (50 μg/mL) are added to each tube and incubated in darkness at room temperature for 30 minutes. The distribution of the number of cells in each of the phases of the cell cycle is next determined by flow cytometry using a FC500 type cytometer (Beckman-Coulter, France).

[8] = system: K562R Doxorubicin resistant chronic myeloid leukaemia; test: In vitro cytotoxicity (CellTiter-Blue), K562R; assay type: cell-based; details: Homo sapiens, K-562R; 72 hours of incubation
Procedure: as §1, §2

[9] = system: JIM-T1 Trastuzumab-DM1 resistant mammal carcinoma; test: In vitro cytotoxicity (CellTiter-Blue), JIM-T1; assay type: cell-based; details: Homo sapiens, JIMT-1; 72 hours of incubation
Procedure: as §1, §2

[10] = system: HCT116 cells; test: Apoptosis, caspase-3/7 activity (Apo-one assay); assay type: cell-based, human; details: HCT116, 24 h treatment, various concentrations
Procedure: In order to clarify whether compound 1 brings about cell death by apoptosis, the intracellular enzymatic activity of caspases 3 and 7 was evaluated in cultures of HCT116 cells exposed for 24 hours to the action of compound 1.
Apoptosis is measured using the “Apo-one homogeneous caspase-3/7 assay” kit (Promega Co, WI, USA) following the manufacturer's recommendations. Briefly, the cells are seeded in 96 well culture plates at a rate of 50,000 cells per well in 100 μL of culture medium. After 24 hours of incubation, the medium is replaced by 100 μL of culture medium containing different concentrations of compound 1 or 0.1% of DMSO (negative control). After 24 hours of treatment, to each well is added 100 μL of reagent containing the caspase substrate and the buffer for the reaction. After 1 hour incubation, the fluorescence emitted by the cells is measured at 527 nm using a Victor type microplate reader (Perkin-Elmer, USA).

IC50 [1] | Compound | IC50 [2] | also measured
1160 ± 310 nM | CN(c1ccc2c(c1)c1ccccc1n2C)c1cc(Cl)nc2ccccc12 [Compound 17, N-(2-Chloroquinolin-4-yl)-N,9-dimethyl-9H-carbazol-3-amine] | 16.7 ± 0.38 nM | –
1190 ± 280 nM | CN(c1ccc2c(ccn2C)c1)c1nc(Cl)nc2ccccc12 [Compound 21, 2-Chloro-N-methyl-N-(1-methyl-1H-indol-5-yl)quinazolin-4-amine] | 0.2 ± 0.01 nM | IC50 [4]: 0.62 ± 0.016 nM; IC50 [5]: 2.34 ± 0.18 nM; IC50 [8]: 1.77 ± 0.162 nM; IC50 [9]: 0.52 ± 0.016 nM
2780 ± 1140 nM | CN(c1ccc2c(ccn2C)c1)c1cc(C#N)nc2ccccc12 [Compound 19, 4-(Methyl(1-methyl-1H-indol-5-yl)amino)quinoline-2-carbonitrile] | 0.72 ± 0.03 nM | melting point: 173.1 to 174.2 °C
2500 ± 540 nM | CN(c1ccc2c(ccn2C)c1)c1cc(C(F)(F)F)nc2ccccc12 [Compound 20, N-Methyl-N-(1-methyl-1H-indol-5-yl)-2-(trifluoromethyl)quinolin-4-amine] | 3.28 ± 0.18 nM | –
1340 ± 450 nM | Cc1cc(N(C)c2ccc3c(ccn3C)c2)c2ccccc2n1 [Compound 18, N,2-Dimethyl-N-(1-methyl-1H-indol-5-yl)quinolin-4-amine] | 2 ± 0.04 nM | –
5760 ± 1470 nM | Cc1cc(N(C)c2ccc3c(c2)c2ccccc2n3C)c2cc(N)ccc2n1 [Compound 16, N4,2-Dimethyl-N4-(9-methyl-9H-carbazol-3-yl)quinoline-4,6-diamine] | 24.5 ± 1.92 nM | –

Further lines, the compound ahead of its results:

Compound | IC50 [1] | IC50 [2] | also measured
Cc1cc(N(C)c2ccc3c(c2)c2ccccc2n3Cc2ccccc2)c2ccccc2n1 [Compound 5, 9-Benzyl-N-methyl-N-(2-methylquinolin-4-yl)-9H-carbazol-3-amine] | – | – | melting point: 192.7 to 196.5 °C
Cc1cc(N(C)c2ccc3c(c2)c2ccccc2n3C)c2cccc(O)c2n1 [Compound 15, 2-Methyl-4-(methyl(9-methyl-9H-carbazol-3-yl)amino)quinolin-8-ol] | 1240 ± 400 nM | 50.6 ± 0.66 nM | –
C=C(c1ccc(OC)c(N)c1)c1cc(OC)c(OC)c(OC)c1 [isoNH2CA-4, isoaminocombretastatin A-4] | – | – | Metabolism in the presence of hepatocytes [3]: do not metabolise in the presence of hepatocytes
CN(c1ccc2c(c1)c1ccccc1n2C)c1ccnc2ccccc12 [Compound 4, N,9-Dimethyl-N-(quinolin-4-yl)-9H-carbazol-3-amine] | – | – | melting point: 222.2 to 228.4 °C
Cc1cc(N(C)c2ccc3c(c2)c2ccccc2n3C)c2ccccc2n1 [Compound 1, N,9-Dimethyl-N-(2-methylquinolin-4-yl)-9H-carbazol-3-amine] | 1130 ± 160 nM | 0.07 ± 0.09 nM | IC50 [4]: 0.47 ± 0.01 nM; IC50 [5]: 0.54 ± 0.094 nM; Number of vascular tubes [6]: very important decrease in the number of vascular tubes; Effect on cell cycle [7]: blocks cellular division in the G2/M phase; IC50 [8]: 0.277 ± 0.017 nM; IC50 [9]: 0.36 ± 0.02 nM; Induction of apoptosis (caspases 3 and 7 activity) [10]: strong induction of apoptosis
CCn1c2ccccc2c2cc(N(C)c3cc(C)nc4ccccc34)ccc21 [Compound 8, 9-Ethyl-N-methyl-N-(2-methylquinolin-4-yl)-9H-carbazol-3-amine] | – | – | melting point: 87.4 to 89.6 °C
Cc1cc(N(C)c2ccc3c(c2)c2cc(N)ccc2n3C)c2ccccc2n1 [Compound 14, N3,9-dimethyl-N3-(2-methylquinolin-4-yl)-9H-carbazole-3,6-diamine] | 2760 ± 500 nM | 2.88 ± 1.54 nM | –
COc1cccc2c(N(C)c3ccc4c(c3)c3ccccc3n4C)cc(C)nc12 [Compound 6, N-(8-Methoxy-2-methylquinolin-4-yl)-N,9-dimethyl-9H-carbazol-3-amine] | 1480 ± 520 nM | 21.6 ± 0.71 nM | –
CN(c1ccc2c(c1)c1ccccc1n2C)c1cc(C#N)nc2ccccc12 [Compound 2, 4-(Methyl(9-methyl-9H-carbazol-3-yl)amino)quinoline-2-carbonitrile] | 1400 ± 510 nM | 12 ± 0.8 nM | –
CN(c1ccc2c(c1)c1ccccc1n2C)c1nc(Cl)nc2ccccc12 [Compound 10, N-(2-Chloroquinazolin-4-yl)-N,9-dimethyl-9H-carbazol-3-amine] | 3140 ± 1040 nM | 1.06 ± 0.2 nM | –
C=C(c1ccc(OC)c(O)c1)c1cc(OC)c(OC)c(OC)c1 [isoCA-4, Isocombretastatin A-4] | – | – | Metabolism in the presence of hepatocytes [3]: do not metabolise in the presence of hepatocytes
Cc1cc(N(C)c2ccc3c(c2)c2ccccc2n3C)c2cc([N+](=O)[O-])ccc2n1 [Compound 7, N,9-Dimethyl-N-(2-methyl-6-nitroquinolin-4-yl)-9H-carbazol-3-amine] | – | – | melting point: 207.6 to 212.4 °C
Cc1nc(N(C)c2ccc3c(c2)c2ccccc2n3C)c2ccccc2n1 [Compound 9, N,9-Dimethyl-N-(2-methylquinazolin-4-yl)-9H-carbazol-3-amine] | 3800 ± 900 nM | 2.4 ± 0.2 nM | –
